Measurements reported in patent US20260013501A1, “HERBICIDAL DERIVATIVES” (SYNGENTA CROP PROTECTION AG, priority 2022, published 2026).

What was measured:
Format in all cases: in vivo
Details in all cases: evaluated after 13 days
[1] = test system: Zea mays (ZEAMX); test: Pre-emergence Test (Table B1), ZEAMX
[2] = test system: Ipomoea hederacea (IPOHE); test: Pre-emergence Test (Table B1), IPOHE
[3] = test system: Amaranthus retoflexus (AMARE); test: Pre-emergence Test (Table B1), AMARE
[4] = test system: Amaranthus palmeri (AMAPA); test: Pre-emergence Test (Table B1), AMAPA
[5] = test system: Echinochloa crus-galli (ECHCG); test: Pre-emergence Test (Table B1), ECHCG
[6] = test system: Zea mays (ZEAMX); test: Post-emergence Test (Table B2), ZEAMX; design: key: 5-point damage scale: 5=81-100%, 4=61-80%, 3=41-60%, 2=21-40%, 1=0-20%
Method: Seeds of a variety of test species are sown in standard soil in pots (Ipomoea hederacea (IPOHE), Zea mays (ZEAMX), Echinochloa crus-galli (ECHCG), Amaranthus palmeri (AMAPA), (Amaranthus retoflexus (AMARE), and (Setaria faberi (SETFA)). After 8 days cultivation under controlled conditions in a glasshouse (at 24° C./16° C., day/night; 14 hours light; 65% humidity), the plants are sprayed with an aqueous spray solution derived from the formulation of the technical active ingredient in acetone/water (50:50) solution containing 0.5% Tween 20 (polyoxyethelyene sorbitan monolaurate, CAS RN 9005-64-5). Rate of application is shown in g/ha in the tables below. The test plants are then grown in a glasshouse under controlled conditions in a glasshouse (at 24° C./16° C., day/night; 14 hours light; 65% humidity) and watered twice daily. After 13 days the test is evaluated for the percentage damage caused to the plant. The biological activities are shown in the following table on a five-point scale (5=81-100%; 4=61-80%; 3=41-60%; 2=21-40%; 1=0-20%; -=not tested).

CCn1c(Cc2nccnc2C(=O)O)cc(=O)c(C(=O)O)c1-c1ccc(Cl)c(Cl)c1 [Compound 49, 3-[[5-carboxy-6-(3,4-dichlorophenyl)-1-ethyl-4-oxo-2-pyridyl]methyl]pyrazine-2-carboxylic acid]
0: Pre-emergence Test, percentage damage caused to the plant (five-point scale), ZEAMX ([1]; Rate 250 g/Ha) | Pre-emergence Test, percentage damage caused to the plant (five-point scale), IPOHE ([2]; Rate 250 g/Ha) | Pre-emergence Test, percentage damage caused to the plant (five-point scale), AMARE ([3]; Rate 250 g/Ha)

CCn1c(Cc2ccc(OC)c(F)c2)cc(=O)c(C(=O)O)c1-c1ccc(Cl)c(Cl)c1 [Compound 83, 2-(3,4-dichlorophenyl)-1-ethyl-6-[(3-fluoro-4-methoxy-phenyl)methyl]-4-oxo-pyridine-3-carboxylic acid]
0: Pre-emergence Test, percentage damage caused to the plant (five-point scale), ZEAMX ([1]; Rate 1000 g/Ha) | Pre-emergence Test, percentage damage caused to the plant (five-point scale), IPOHE ([2]; Rate 1000 g/Ha) | Pre-emergence Test, percentage damage caused to the plant (five-point scale), AMARE ([3]; Rate 1000 g/Ha) | Pre-emergence Test, percentage damage caused to the plant (five-point scale), AMAPA ([4]; Rate 1000 g/Ha)

CCn1c(Cc2ccsc2)cc(=O)c(C(=O)O)c1-c1ccc(Cl)c(Cl)c1 [Compound 51, 2-(3,4-dichlorophenyl)-1-ethyl-4-oxo-6-(3-thienylmethyl) pyridine-3-carboxylic acid]
0: Pre-emergence Test, percentage damage caused to the plant (five-point scale), ZEAMX ([1]; Rate 1000 g/Ha) | Pre-emergence Test, percentage damage caused to the plant (five-point scale), IPOHE ([2]; Rate 1000 g/Ha) | Pre-emergence Test, percentage damage caused to the plant (five-point scale), AMARE ([3]; Rate 1000 g/Ha) | Pre-emergence Test, percentage damage caused to the plant (five-point scale), AMAPA ([4]; Rate 1000 g/Ha)

CCn1c(Cc2ccc(OC(F)(F)F)cc2C)cc(=O)c(C(=O)O)c1-c1ccc(Cl)c(Cl)c1 [Compound 63, 2-(3,4-dichlorophenyl)-1-ethyl-6-[[2-methyl-4-(trifluoromethoxy)phenyl]methyl]-4-oxo-pyridine-3-carboxylic acid]
0: Pre-emergence Test, percentage damage caused to the plant (five-point scale), ZEAMX ([1]; Rate 1000 g/Ha) | Pre-emergence Test, percentage damage caused to the plant (five-point scale), IPOHE ([2]; Rate 1000 g/Ha) | Pre-emergence Test, percentage damage caused to the plant (five-point scale), AMARE ([3]; Rate 1000 g/Ha) | Pre-emergence Test, percentage damage caused to the plant (five-point scale), AMAPA ([4]; Rate 1000 g/Ha)

CCn1c(Cc2cncc(F)c2)cc(=O)c(C(=O)O)c1-c1ccc(Cl)c(Cl)c1 [Compound 42, 2-(3,4-dichlorophenyl)-1-ethyl-6-[(5-fluoro-3-pyridyl)methyl]-4-oxo-pyridine-3-carboxylic acid]
0: Pre-emergence Test, percentage damage caused to the plant (five-point scale), ZEAMX ([1]; Rate 250 g/Ha) | Pre-emergence Test, percentage damage caused to the plant (five-point scale), AMAPA ([4]; Rate 250 g/Ha) | Pre-emergence Test, percentage damage caused to the plant (five-point scale), ECHCG ([5]; Rate 250 g/Ha) | percentage damage caused to the plant, ZEAMX ([6]; rate 250 g/Ha)

CCn1c(Cc2csnc2C)cc(=O)c(C(=O)O)c1-c1ccc(Cl)c(Cl)c1 [Compound 150, 2-(3,4-dichlorophenyl)-1-ethyl-6-[(3-methylisothiazol-4-yl)methyl]-4-oxo-pyridine-3-carboxylic acid]
0: Pre-emergence Test, percentage damage caused to the plant (five-point scale), ZEAMX ([1]; Rate 250 g/Ha) | Pre-emergence Test, percentage damage caused to the plant (five-point scale), IPOHE ([2]; Rate 250 g/Ha) | percentage damage caused to the plant, ZEAMX ([6]; rate 250 g/Ha)

CCn1c(Cc2ncc(SC)cn2)cc(=O)c(C(=O)O)c1-c1ccc(Cl)c(Cl)c1 [Compound 99, 2-(3,4-dichlorophenyl)-1-ethyl-6-[(5-methylsulfanylpyrimidin-2-yl)methyl]-4-oxo-pyridine-3-carboxylic acid]
0: Pre-emergence Test, percentage damage caused to the plant (five-point scale), ZEAMX ([1]; Rate 250 g/Ha) | Pre-emergence Test, percentage damage caused to the plant (five-point scale), IPOHE ([2]; Rate 250 g/Ha) | Pre-emergence Test, percentage damage caused to the plant (five-point scale), ECHCG ([5]; Rate 250 g/Ha)

CCn1c(Cc2cc(COC)cc(Cl)n2)cc(=O)c(C(=O)O)c1-c1ccc(Cl)c(Cl)c1 [Compound 103, 6-[[6-chloro-4-(methoxymethyl)-2-pyridyl]methyl]-2-(3,4-dichlorophenyl)-1-ethyl-4-oxo-pyridine-3-carboxylic acid]
0: Pre-emergence Test, percentage damage caused to the plant (five-point scale), ZEAMX ([1]; Rate 1000 g/Ha) | Pre-emergence Test, percentage damage caused to the plant (five-point scale), IPOHE ([2]; Rate 1000 g/Ha) | Pre-emergence Test, percentage damage caused to the plant (five-point scale), AMARE ([3]; Rate 1000 g/Ha) | Pre-emergence Test, percentage damage caused to the plant (five-point scale), AMAPA ([4]; Rate 1000 g/Ha)

CCn1c(Cc2cccc(F)c2)cc(=O)c(C(=O)O)c1-c1ccc(Cl)c(Cl)c1 [Compound 37, 2-(3,4-dichlorophenyl)-1-ethyl 6-[(3-fluorophenyl)methyl]-4-oxo-pyridine-3-carboxylic acid]
0: Pre-emergence Test, percentage damage caused to the plant (five-point scale), ZEAMX ([1]; Rate 1000 g/Ha) | Pre-emergence Test, percentage damage caused to the plant (five-point scale), IPOHE ([2]; Rate 1000 g/Ha) | Pre-emergence Test, percentage damage caused to the plant (five-point scale), AMARE ([3]; Rate 1000 g/Ha) | Pre-emergence Test, percentage damage caused to the plant (five-point scale), AMAPA ([4]; Rate 1000 g/Ha) | percentage damage caused to the plant, ZEAMX ([6]; rate 1000 g/Ha)

CCn1c(Cc2nccc(OC)n2)cc(=O)c(C(=O)O)c1-c1ccc(Cl)c(Cl)c1 [Compound 20, 2-(3,4-dichlorophenyl)-1-ethyl-6-[(4-methoxypyrimidin-2-yl)methyl]-4-oxo-pyridine-3-carboxylic acid]
0: Pre-emergence Test, percentage damage caused to the plant (five-point scale), ZEAMX ([1]; Rate 250 g/Ha) | Pre-emergence Test, percentage damage caused to the plant (five-point scale), AMARE ([3]; Rate 250 g/Ha) | Pre-emergence Test, percentage damage caused to the plant (five-point scale), AMAPA ([4]; Rate 250 g/Ha) | Pre-emergence Test, percentage damage caused to the plant (five-point scale), ECHCG ([5]; Rate 250 g/Ha)

CCn1c(Cc2ncccn2)cc(=O)c(C(=O)O)c1-c1ccc(Cl)c(Cl)c1 [Compound 22, 2-(3,4-dichlorophenyl)-1-ethyl-4-oxo-6-(pyrimidin-2-ylmethyl)pyridine-3-carboxylic acid]
0: Pre-emergence Test, percentage damage caused to the plant (five-point scale), ZEAMX ([1]; Rate 250 g/Ha) | Pre-emergence Test, percentage damage caused to the plant (five-point scale), AMARE ([3]; Rate 250 g/Ha) | Pre-emergence Test, percentage damage caused to the plant (five-point scale), AMAPA ([4]; Rate 250 g/Ha) | Pre-emergence Test, percentage damage caused to the plant (five-point scale), ECHCG ([5]; Rate 250 g/Ha)

CCn1c(Cc2ccc(SC)cc2)cc(=O)c(C(=O)O)c1-c1ccc(Cl)c(Cl)c1 [Compound 28, 2-(3,4-dichlorophenyl)-1-ethyl-6-[(4-methylsulfanylphenyl)methyl]-4-oxo-pyridine-3-carboxylic acid]
0: Pre-emergence Test, percentage damage caused to the plant (five-point scale), ZEAMX ([1]; Rate 1000 g/Ha) | Pre-emergence Test, percentage damage caused to the plant (five-point scale), IPOHE ([2]; Rate 1000 g/Ha) | Pre-emergence Test, percentage damage caused to the plant (five-point scale), AMARE ([3]; Rate 1000 g/Ha) | Pre-emergence Test, percentage damage caused to the plant (five-point scale), AMAPA ([4]; Rate 1000 g/Ha) | percentage damage caused to the plant, ZEAMX ([6]; rate 1000 g/Ha)

CCn1c(Cc2cc(C)ncn2)cc(=O)c(C(=O)O)c1-c1ccc(Cl)c(Cl)c1 [Compound 128, 2-(3,4-dichlorophenyl)-1-ethyl-6-[(6-methylpyrimidin-4-yl)methyl]-4-oxo-pyridine-3-carboxylic acid]
0: Pre-emergence Test, percentage damage caused to the plant (five-point scale), ZEAMX ([1]; Rate 250 g/Ha) | Pre-emergence Test, percentage damage caused to the plant (five-point scale), ECHCG ([5]; Rate 250 g/Ha) | percentage damage caused to the plant, ZEAMX ([6]; rate 250 g/Ha)

CCn1c(Cc2cc(OC)ncn2)cc(=O)c(C(=O)O)c1-c1ccc(Cl)c(Cl)c1 [Compound 100, 2-(3,4-dichlorophenyl)-1-ethyl-6-[(6-methoxypyrimidin-4-yl)methyl]-4-oxo-pyridine-3-carboxylic acid]
0: Pre-emergence Test, percentage damage caused to the plant (five-point scale), ZEAMX ([1]; Rate 250 g/Ha) | Pre-emergence Test, percentage damage caused to the plant (five-point scale), AMARE ([3]; Rate 250 g/Ha) | Pre-emergence Test, percentage damage caused to the plant (five-point scale), ECHCG ([5]; Rate 250 g/Ha)

CCOC(=O)c1cccc(Cc2cc(=O)c(C(=O)O)c(-c3ccc(Cl)c(Cl)c3)n2CC)n1 [Compound 102, 2-(3,4-dichlorophenyl)-6-[(6-ethoxycarbonylpyridin-1-ium-2-yl)methyl]-1-ehtyl-4-oxo-pyridine-3-carboxylic acid; 2,2,2-trifluoroacetate]
0: Pre-emergence Test, percentage damage caused to the plant (five-point scale), ZEAMX ([1]; Rate 1000 g/Ha) | Pre-emergence Test, percentage damage caused to the plant (five-point scale), IPOHE ([2]; Rate 1000 g/Ha) | Pre-emergence Test, percentage damage caused to the plant (five-point scale), AMARE ([3]; Rate 1000 g/Ha) | Pre-emergence Test, percentage damage caused to the plant (five-point scale), AMAPA ([4]; Rate 1000 g/Ha) | percentage damage caused to the plant, ZEAMX ([6]; rate 1000 g/Ha)

CCn1c(Cc2cnc(Cl)cn2)cc(=O)c(C(=O)O)c1-c1ccc(Cl)c(Cl)c1 [Compound 143, 6-[(5-chloropyrazin-2-yl)methyl]-2-(3,4-dichlorophenyl)-1-ethyl-4-oxo-pyridine-3-carboxylic acid]
0: Pre-emergence Test, percentage damage caused to the plant (five-point scale), ZEAMX ([1]; Rate 250 g/Ha) | Pre-emergence Test, percentage damage caused to the plant (five-point scale), AMAPA ([4]; Rate 250 g/Ha) | Pre-emergence Test, percentage damage caused to the plant (five-point scale), ECHCG ([5]; Rate 250 g/Ha) | percentage damage caused to the plant, ZEAMX ([6]; rate 250 g/Ha)

CCn1c(Cc2ccnc(Cl)c2)cc(=O)c(C(=O)O)c1-c1ccc(Cl)c(Cl)c1 [Compound 41, 6-[(2-chloro-4-pyridyl)methyl]-2-(3,4-dichlorophenyl)-1-ethyl-4-oxo-pyridine-3-carboxylic acid]
0: Pre-emergence Test, percentage damage caused to the plant (five-point scale), ZEAMX ([1]; Rate 250 g/Ha) | Pre-emergence Test, percentage damage caused to the plant (five-point scale), AMARE ([3]; Rate 250 g/Ha) | Pre-emergence Test, percentage damage caused to the plant (five-point scale), AMAPA ([4]; Rate 250 g/Ha) | percentage damage caused to the plant, ZEAMX ([6]; rate 250 g/Ha)

CCn1c(Cc2cc(C#N)ccn2)cc(=O)c(C(=O)O)c1-c1ccc(Cl)c(Cl)c1 [Compound 111, 6-[(4-cyano-2-pyridyl)methyl]-2-(3,4-dichlorophenyl)-1-ethyl-4-oxo-pyridine-3-carboxylic acid]
0: Pre-emergence Test, percentage damage caused to the plant (five-point scale), ECHCG ([5]; Rate 250 g/Ha)

CCn1c(Cc2cc(C(F)(F)F)ccn2)cc(=O)c(C(=O)O)c1-c1ccc(Cl)c(Cl)c1 [Compound 18, 2-(3,4-dichlorophenyl)-1-ethyl-4-oxo-6-[[4-(trifluoromethyl)-2-pyridyl]methyl]pyridine-3-carboxylic acid]
0: Pre-emergence Test, percentage damage caused to the plant (five-point scale), ECHCG ([5]; Rate 1000 g/Ha)
